The record followed here is PubChem BioAssay (NCI).

“And” between values parts separate entries of the source, which are not always exact repeats. Equal values may be shown once.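 The compound was tested at five concentrations on cells cultured in 96-well plates, with a 48-hour exposure period. Abbreviation: GI50, concentration required for 50% inhibition of growth. TGI is the concentration that stops growth completely.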

Among the test systems are ACHN renal; SF-539 CNS; UACC-257 melanoma; SN12C renal; LOX IMVI melanoma; IGROV1 ovarian; NCI-H522 lung; HT29 colon; U251 CNS; TK-10 renal.
Common to all, as to test: growth of human tumour cells (NCI), 48 h

In the case of `Cc1cc2c(cc1C)[n+](Cc1ccc3ccccc3n1)cn2Cc1ccc2ccccc2n1`, the GI50 with ACHN renal was 3060 nM; in the experiment with SF-539 CNS it was 899 nM; in the experiment with UACC-257 melanoma it was 1230 nM; with SN12C renal it was 792 nM; in the experiment with LOX IMVI melanoma, 669 nM; with IGROV1 ovarian, 570 nM. Also, the GI50 in the experiment with NCI-H522 lung is 704 nM; with HT29 colon, 331 nM; in the experiment with U251 CNS, 926 nM; in the experiment with TK-10 renal, 1380 nM. Besides, the TGI with ACHN renal is 10.6 µM; with SF-539 CNS it was 2.53 µM; in the experiment on UACC-257 melanoma, 3.18 µM; with SN12C renal, 2.17 µM; in the experiment with LOX IMVI melanoma it was 2 µM; in the experiment on IGROV1 ovarian it was 2.21 µM. For the same molecule, the TGI in the experiment with NCI-H522 lung turned out to be 2.47 µM; in the experiment with HT29 colon it was 1.63 µM; in the experiment with U251 CNS it was 2.2 µM; in the experiment with TK-10 renal, 2.74 µM.

As for `CC(=O)/C(=C\c1c(-c2ccccc2)[nH]c2ccccc12)S(=O)(=O)c1ccccc1`, the GI50 was 2060 nM in the experiment on ACHN renal; 1310 nM in the experiment on SF-539 CNS; 2230 nM in the experiment on UACC-257 melanoma; 1820 nM in the experiment with SN12C renal; 1390 nM with LOX IMVI melanoma; 1510 nM with IGROV1 ovarian. The GI50 was 1170 nM with NCI-H522 lung, 576 nM with HT29 colon, 1200 nM with U251 CNS and 3440 nM with TK-10 renal. Besides, the TGI with ACHN renal was found to be 5.09 µM; with SF-539 CNS it was 3.08 µM; with UACC-257 melanoma, 8.58 µM; in the experiment with SN12C renal it was 9.59 µM; in the experiment with LOX IMVI melanoma, 3.27 µM; with IGROV1 ovarian it was 4.37 µM. The TGI with NCI-H522 lung was 4.35 µM; in the experiment on HT29 colon it was 2.32 µM; with U251 CNS it was 3.62 µM; in the experiment with TK-10 renal it was over 41.1 µM.

Consider `CCCC#CCOC(=O)c1cc([N+](=O)[O-])cc([N+](=O)[O-])c1`, for which the TGI with ACHN renal, with SF-539 CNS, in the experiment with UACC-257 melanoma, in the experiment on SN12C renal, with LOX IMVI melanoma and with IGROV1 ovarian was over 100 µM throughout. Besides, the TGI in the experiment with NCI-H522 lung, with HT29 colon, in the experiment on U251 CNS and in the experiment on TK-10 renal was over 100 µM throughout.

Consider `O=c1cc(O)c2c(O)cc(O)cc2o1`, for which the TGI in the experiment on ACHN renal, in the experiment on SF-539 CNS, in the experiment with UACC-257 melanoma, in the experiment with SN12C renal, in the experiment on LOX IMVI melanoma and with IGROV1 ovarian was over 100 µM throughout. Besides, the TGI in the experiment with NCI-H522 lung, in the experiment on HT29 colon, in the experiment with U251 CNS and in the experiment with TK-10 renal was over 100 µM in each case.

For `O=C(c1ccccc1O)c1[nH]c(Cl)c(Cl)c1-n1c(C(=O)c2ccccc2O)cc(Cl)c1Cl`, the GI50 is 1540 nM and 591 nM in the experiment with ACHN renal; 1670 nM and 1740 nM with SF-539 CNS; 1580 nM and 1990 nM in the experiment with UACC-257 melanoma; 399 nM and 368 nM in the experiment on SN12C renal; 2720 nM and 2480 nM in the experiment on LOX IMVI melanoma; 1540 nM and 1450 nM in the experiment on IGROV1 ovarian. Further, the GI50 was 317 nM and 363 nM in the experiment with NCI-H522 lung; 2000 nM in the experiment on HT29 colon; 1290 nM and 1420 nM with U251 CNS; 656 nM and 616 nM in the experiment on TK-10 renal. Also, the TGI in the experiment with ACHN renal is 9.41 µM and 9.11 µM; in the experiment with SF-539 CNS, 10.1 µM and 10.9 µM; in the experiment with UACC-257 melanoma, 5.88 µM and 9.95 µM; in the experiment on SN12C renal, 11.9 µM and 11 µM; with LOX IMVI melanoma, 10.6 µM and 10.7 µM; in the experiment with IGROV1 ovarian, 20.5 µM and 15.1 µM. Besides, the TGI is 1.4 µM and 7.68 µM in the experiment with NCI-H522 lung; 12.8 µM in the experiment with HT29 colon; 12.3 µM and 13.6 µM with U251 CNS; 10.9 µM and 12.4 µM in the experiment with TK-10 renal.

`O=C1c2c(c3c4ccccc4[nH]c3c3[nH]c4ccccc4c23)C(=O)N1Cc1ccccc1`: the TGI came to 11 µM in the experiment on ACHN renal; 6.26 µM with SF-539 CNS; 13.3 µM with UACC-257 melanoma; 5.6 µM in the experiment with SN12C renal; 8.31 µM in the experiment on LOX IMVI melanoma; 18.7 µM in the experiment with IGROV1 ovarian. Moreover, the TGI is 4.72 µM with NCI-H522 lung, 14.5 µM in the experiment with HT29 colon, 6.34 µM in the experiment on U251 CNS and 11.6 µM with TK-10 renal.

For the molecule `CN1CCN(c2ccc(C(=O)Nc3cccc(C#Cc4cccc5[nH]nc(N)c45)c3)cc2C(F)(F)F)CC1`, the GI50 was 801 nM in the experiment with ACHN renal; 544 nM with SF-539 CNS; 1930 nM in the experiment with UACC-257 melanoma; 1200 nM in the experiment with SN12C renal; 590 nM with LOX IMVI melanoma; 716 nM in the experiment on IGROV1 ovarian. Also, the GI50 is 566 nM with NCI-H522 lung, 715 nM in the experiment on HT29 colon, 707 nM with U251 CNS and 1100 nM in the experiment on TK-10 renal. Further, the TGI came out at 2.4 µM with ACHN renal; 1.16 µM in the experiment on SF-539 CNS; 4.53 µM with UACC-257 melanoma; 4.54 µM with SN12C renal; 1.08 µM in the experiment on LOX IMVI melanoma; 1.92 µM in the experiment with IGROV1 ovarian. The TGI is 1.3 µM in the experiment on NCI-H522 lung, 1.81 µM in the experiment on HT29 colon, 1.95 µM in the experiment on U251 CNS and 3.24 µM with TK-10 renal.

Turning to `COc1cc2c(cc1OC)[C@@H]([C@H](O)c1ccccc1)NCC2`, the TGI with ACHN renal, with SF-539 CNS, with UACC-257 melanoma, in the experiment with SN12C renal, in the experiment on LOX IMVI melanoma and with IGROV1 ovarian was over 100 µM each time. Moreover, the TGI in the experiment on NCI-H522 lung, in the experiment with HT29 colon, with U251 CNS and with TK-10 renal was over 100 µM each time.
